According to patent US5599974A, “Aldehydic agents for allosteric modification of hemoglobin” (Center for Innovative Technology, priority 1994, dated 1997):

Tests used:
HbA = target: T1, HbA (Homo sapiens, UniProt P69905); assay: X-ray diffraction analysis of HbA/drug complexes (difference electron-density maps); type: binding; conditions: HbA tetramer/drug molar ratio 1:5 (TB17 1:10), Schiff base reduced, deoxygenated crystals
T1 construct: co-crystals with compounds
Experimental: Reaction of the drug compounds with HbA, crystallization and X-ray data collection of the HbA/drug complexes were performed according to the procedures of Wireko et al., Proc. Natl. Acad. Sci. USA, 1991, 88, 2209, which is herein incorporated by reference, with some slight modifications. Freshly prepared solutions of the synthesized compounds in potassium phosphate buffer were incubated at oxy HbA tetramer/drug molar ratios of 1:5 or 1:10 for at least 24 hours. Sodium cyanoborohydrie in phosphate buffer was added in 10- to 50-fold molar excess of HbA tetramer to reduce the Schiff's base adduct for at least 24 hours. The deoxygenated HbA/compound complexes were set up for crystallizations following the procedures described in Perutz et al., Crys. Growth, 1968, 2, 54, which is herein incorporated by reference, with some slight modifications. X-ray quality crystals for all complexes were obtained after three to seven days. Crystals of TB19 (discussed below) grown with HbA incubated and reduced under deoxygenated conditions was also used for data collection.
X-ray diffraction data for the MS2 complex (discussed below) was collected using a Rigaku AFC5R rotating anode diffractometer to a resolution of 4Å. All hk±1 reflections and their Friedel pairs were collected. One crystal, dimensions 0.3 to 1.2 mm was used for collection. Diffraction data for the rest of the complexes were collected with a Rigaku AFC5R rotating anode diffractometer equipped with an R-axis IIC image plate system, all to a resolution of 1.94A. Crystals of linear dimensions 0.2 to 0.5 mm were used. Data reduction, structure solution and calculation of Fourier difference electron-density maps were as described in Wireko et al., Proc. Natl. Acad. Sci. USA, 1991, 88, 2209.
Models of the compounds created with MMOD and minimized with MM2 force field were fitted to the electron-density by using FRODO on an EVANS and SUTHERLAND PS390 graphic station.
X-ray diffraction analyses were used to study several of the new drug complexes including MS1, MS2, TB8, TB10, TB17, TB19, TB32, TB36, TB62, and TB63. The difference electron-density maps of all complexes discussed are that of the HbA tetramer/drug molar ratio of 1:5, except TB17 which is 1:10. All drug molecules contain at least two functionalities, an aldehyde and a carboxylate, common to all of them. […] The only exception was MS2 where only one of the carboxylate oxygens was involved in the salt bridge interaction. The above binding site, which is common to all of the complexes, will be referred to as the α-cleft binding site. Some of the above drug compounds have additional functional groups which are also involved in additional interaction with other HbA residues, including hydrogen bonding, van der Waals interaction, and a second covalent bonding.
All complexes have two molecules of the drug compounds bound at the above-mentioned α-cleft site and are related by the two fold noncrystallographic axis. These sites are further noted as the α1-cleft site (Val-1α1 binding site), and the α2-cleft site (Val-1α2 binding site). In all complexes, the electron density at the α2-cleft site were slightly bigger and better defined than the electron density at the α1-cleft site. In addition to the binding at the α-cleft site, some of the drug compounds also bind to other secondary sites, including other sites in the α-cleft water cavity, the β-cleft water cavity located at Val-1β, and the Hb polymer contact site located near the residues His-116β and His-117β.

whole blood = assay: Whole-blood studies: effect on the oxygen affinity of whole blood; type: cell-based
human hemoglobin (HbA) = target: T2, human hemoglobin (HbA) (Homo sapiens, UniProt P69905); assay: Oxygen equilibrium studies of hemoglobin solutions (Hem-O-Scan oxygen dissociation curves); type: biochemical; conditions: hemoglobin solution
T2 construct: hemoglobin solution
Description: In blood, hemoglobin is in equilibrium between two allosteric structures. In the "T" (for tense) state, hemoglobin is de-oxygenated. In the "R" (for relaxed) state, hemoglobin is oxygenated. An oxygen equilibrium curve can be scanned using well known equipment such as the Aminco™ Hem-o-scan to evaluate the affinity and degree of cooperativity (allosteric action) of hemoglobin. In the scan, the Y-axis plots the percent of hemoglobin oxygenation and the X-axis plots the partial pressure of oxygen in millimeters of mercury (mm Hg). If a horizontal line is drawn from the 50% oxygen saturation point to the scanned curve and a vertical line is drawn from the intersection point of the horizontal line with the curve to the partial pressure X-axis, a value commonly known as the P50 is determined. This is the pressure when the hemoglobin is 50% saturated with oxygen. By comparing the P50 value for treated hemoglobin to the P50 value for untreated normal adult human hemoglobin (HbA) under physiological conditions (i.e., 37° C., pH=7.4, and partial carbon dioxide pressure of 40 mm Hg), the degree of allosteric modification can be determined. When the P50 value for treated hemoglobin is lower than for HbA, a high oxygen affinity hemoglobin is indicated and the curve is said to be "left-shifted". Conversely, when the P50 value for treated hemoglobin is higher than for HbA, a low oxygen affinity hemoglobin is indicated and the curve is said to be "right-shifted".
In the oxygen equilibrium studies, the HbA was further purified by dialysis against pH 8.6. Tris buffer (50 mM, containing 40 mg EDTA/L) to remove any residual A2 hemoglobin. The pure HbA fraction was concentrated by using a Schleicher and Schuell colloidion bag apparatus, available from Schleicher and Schuell, Inc., with HEPES buffer (50 mM, pH 7.4) as the exchange buffer. The Hb concentration was determined by using the cyanmet method. The Hb concentration at this point was usually found to be around 35 g% (approximately 5.4 mM). Less than 5% methemoglobin was noted even after several days at 4° C. Oxygen dissociation curves were recorded on an AMINCO Hem-0-Scan oxygen dissociation analyzer available from Travenol Laboratories.
All compounds were dissolved in 50 mM HEPES buffer, pH 7.4, to give 20 mM of drug solution. The Hb (5.4 mM, in HEPES, pH 7.4) and the test compounds (20 mM) were mixed in 1:1 volume ratio (50μL of Hb+50μL of compound solution) to give final concentrations of 2.7 mM and 10mM, respectively (a molar ratio of test compound to hemoglobin of approximately 4:1). A control experiment was prepared by the addition of 50 μL of Hb to 50 μL of HEPES buffer. The mixtures were incubated at 4° C. for two hours before running the oxygen dissociation curves.

direction of shift of the oxygen equilibrium curve (human hemoglobin (HbA)): right shift | P50 D (aver.) (human hemoglobin (HbA); Hb 2.7 mM, compound 10 mM (approx. 4:1), 50 mM HEPES pH 7.4, incubated at 4° C. for two hours): 42.0 mm Hg | ΔP50 (P50 D - P50 C) (human hemoglobin (HbA); Hb 2.7 mM, compound 10 mM, 50 mM HEPES pH 7.4, positive = right shift): 20.0 mm Hg
SMILES: O=Cc1ccc(OCCCCOc2ccc(C=O)cc2C(=O)O)c(C(=O)O)c1 [TB19, 1,4-Bis(2-carboxy-4-formylphenoxy)-butane]
binding sites in HbA seen in the difference electron-density map (HbA): binding exclusively at the two symmetry-relatedα-cleft sites | P50 D (aver.) (whole blood; heparinized whole blood mixed 1:1 with test compound solution, equilibrated 1 hour at 37° C., P50 C 25.0): 19.5 mm Hg | direction of shift of the oxygen equilibrium curve (whole blood; whole blood): left shift | ΔP50 D (whole blood; whole blood, 1 hour at 37° C., P50 D - P50 C): -5.5 mm Hg
